Key:
[1] = target: MLL1-WDR5 protein-protein interactions (Homo sapiens, UniProt P61964); experiment: Inhibition of MLL1-WDR5 protein-protein interaction; type: binding; details: Table 1; read-out: MLL1-WDR5 PPI inhibition activity
[2] = test system: H3K4 acetylation level (MLL1 catalytic activity in cells); experiment: Western-blot at cellular level, H3K4 acetylation (H3K4me1/2/3) levels; type: cell-based; details: Yes/No
Description: In addition, Western-blot experiments at cellular level were conducted with some of the compounds in the present disclosure, with results listed in Table 1 on whether some of the compounds in the present disclosure inhibited H3K4 acetylation levels.
The inhibition on MLL1 catalytic activities at the cellular level for some of the compounds was plotted in FIG. 2.

[3] = test system: Hox and Meis-1 gene expression; experiment: RT-PCR at cellular level, Hox and Meis-1 gene expression; type: cell-based; details: Yes/No
[4] = test system: MV4-11 human acute leukemia monocyte; experiment: Anti-proliferation on leukemia cells, MV4-11; type: cell-based; details: MV-411 cells
Description: (§1) Anti-proliferation experiments were conducted with leukemia cells with some of the compounds in the present disclosure.

[5] = test system: Molm-13 human acute myeloid leukemia cells; experiment: Anti-proliferation on leukemia cells, Molm-13; type: cell-based; details: Molm-13 cells
Description: as §1

[6] = test system: K562 human chronic myeloid leukemia cells; experiment: Anti-proliferation on leukemia cells, K562; type: cell-based
Description: Anti-proliferation experiments were conducted with leukemia cells with some of the compounds in the present disclosure. Table 3 listed the results of evaluation of the anti-proliferation activities for some of the compounds from this present disclosure conducted with acute leukemia cells, wherein MV4-11 is human acute leukemia monocyte, Molm-13 is human acute myeloid leukemia cells, and K562 is human chronic myeloid leukemia cells.

[7] = test system: female balb/c mice; details: 80 mg/kg intraperitoneal, 10 consecutive days
Description: In the meantime, subacute toxicity experiments were conducted to evaluate the safety of some of the compounds in the present disclosure in mouse.

| Molecule | IC50 [1] | Inhibition on H3K4 acetylation level [2] | Downregulation of Hox and Meis-1 expression [3] | GI50 [4] | GI50 [5] | GI50 ([4]; Homo sapiens, MV4-11) | GI50 [6] | Average body weight changes [7] | GI50 ([5]; Homo sapiens) |
| --- | --- | --- | --- | --- | --- | --- | --- | --- | --- |
| 5-amino-2-chloro-N-(5-(4-(4-(dimethylaminomethyl)benzyl)-1H-1,2,3-triazol-1-group)-2-(4-methylpiperazin-1-group group)phenyl)-4-fluoro-3-Methyl benzoyl [Example 18] | < 0.05 µM | Yes | Yes | 11.2 ± 1.3 µM | 15.4 ± 2.2 µM | – | – | – | – |
| Cc1c(F)c(N)cc(C(=O)Nc2cc(-c3ccc(N)cc3)ccc2N2CCN(C)CC2)c1Cl [DDO-2084, reference compound] | 0.0887 ± 0.0049 µM | Yes | Yes | – | – | 17.7 ± 2.3 µM | 50.5 ± 5.5 µM | – | – |
| COC(=O)c1cn(-c2ccc(N3CCN(C)CC3)c(NC(=O)c3cc(N)c(F)c(C)c3Cl)c2)nn1 [Example 1, 1-(3-(5-amino-2-chloro-4-fluoro-3-methylbenzoylamino)-4-(4-methylpiperazine-1-group)phenyl)-1H-1,2,3-methyl triazole-4-carboxylate] | – | Yes | Yes | – | – | – | – | – | – |
| Cc1c(F)c(N)cc(C(=O)Nc2cc(-n3cc(C(=O)N4CCOCC4)nn3)ccc2N2CCN(C)CC2)c1Cl [Example 4] | – | Yes | Yes | – | – | – | 34.4 ± 0.9 µM | slight body weight increase | – |
| Cc1c(F)c(N)cc(C(=O)Nc2cc(-n3cc(C(=O)NCCCN4CCOCC4)nn3)ccc2N2CCN(C)CC2)c1Cl [Example 7] | – | – | – | – | – | – | 12.9 ± 0.4 µM | slight body weight increase | – |
| Cc1c(F)c(N)cc(C(=O)Nc2cc(-n3cc(NC(=O)CCCN)nn3)ccc2N2CCN(C)CC2)c1Cl [Example 16, 5-amino-N-(5-(4-(4-Aminobutyrylamino)-1H-1,2,3-triazol-1-group)-2-(4-methylpiperazin-1-group)phenyl)-2-chloro-4-fluoro-3-methyl benzoylamino] | < 0.01 µM | – | – | – | – | 15.1 ± 0.9 µM | 15 ± 0.8 µM | slight body weight increase | – |
| Cc1c(F)c(N)cc(C(=O)Nc2c(N3CCN(C)CC3)ccc(-n3cc(C(=O)NCCN4CCOCC4)nn3)c2C)c1Cl [Example 22, 1-(3-(5-amino-2-chloro-4-fluoro-3-Methylbenzoylamino)-2-methyl-4-(4-methylpiperazin-1-group)phenyl)-N-(2-Morpholineethyl)-1H-1,2,3-triazol-4-formamide] | < 0.01 µM | – | – | – | – | 9.5 ± 0.4 µM | 10.9 ± 0.7 µM | slight body weight increase | 11.2 ± 0.8 µM |
